# Data as given in ChEMBL document CHEMBL1134252, “Reaction of Lys-Tyr-Lys triad mimics with benzylpenicillin: insight into the role of Tyr150 in class C beta-lactamase” (Bioorg Med Chem Lett, 2001).
# Test: Time taken by compound for 10% decrease in benzyl-penicillin concentration
# Assay type: ADME
# Conditions: not given
row,Structure (SMILES),Time [h]
1,COc1c(CN)cc(C)cc1CN,44.9
2,Cc1cc(CNCCO)c(O)c(CNCCO)c1,2.45
3,Cc1cc(CN)c(O)c(CN)c1,1.38
4,Cc1ccc(O)c(CN)c1,8.25
5,Cc1cc([C@@H](N)CO)c(O)c([C@@H](N)CO)c1,3.6

# Test: pKa1 value determined
# Assay type: physicochemical
# Conditions: read-out: pKa1
row,Structure (SMILES),pKa
1,COc1c(CN)cc(C)cc1CN,8.5
2,Cc1cc(CNCCO)c(O)c(CNCCO)c1,6.4
3,Cc1cc(CN)c(O)c(CN)c1,7
4,Cc1ccc(O)c(CN)c1,8.7
5,Cc1cc([C@@H](N)CO)c(O)c([C@@H](N)CO)c1,6.3

# Test: pKa2 value determined
# Assay type: physicochemical
# Conditions: read-out: pKa2
row,Structure (SMILES),pKa
1,COc1c(CN)cc(C)cc1CN,10.2
2,Cc1cc(CNCCO)c(O)c(CNCCO)c1,9.7
3,Cc1cc(CN)c(O)c(CN)c1,9.7
4,Cc1cc([C@@H](N)CO)c(O)c([C@@H](N)CO)c1,9
